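96-well plates; 48 h exposure; 5 concentrations. Endpoints by linear interpolation between flanking doses. Not reached: highest tested concentration assigned. Here, GI50 denotes the concentration required for 50% inhibition of growth.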 Activity calls are given as the source filed them. Cut-off read from the data, not from the text of the source: active = GI50 up to about 1.1 µM and inactive = higher.
What was measured:
Assay in all cases: NCI tumour cell line growth inhibition, 48 h
[1] = test system: SK-OV-3
[2] = test system: NCI-H23
[3] = test system: COLO 205
[4] = test system: CCRF-CEM
[5] = test system: UACC-62
[6] = test system: HCT-15
[7] = test system: UO-31
[8] = test system: OVCAR-3
[9] = test system: SF-268
[10] = test system: K562
[11] = test system: NCI-H522
[12] = test system: SK-MEL-28
[13] = test system: NCI-H226
[14] = test system: MOLT-4
[15] = test system: SK-MEL-5
[16] = test system: EKVX
[17] = test system: SK-MEL-2
[18] = test system: TK-10
[19] = test system: U-251

Row | Structure (SMILES) | GI50 [1] | GI50 [2] | GI50 [3] | GI50 [4] | GI50 [5] | GI50 [6] [µM] | GI50 [7] | GI50 [8] | GI50 [9] | GI50 [10] | GI50 [11] | GI50 [12] | GI50 [13] | GI50 [14] | GI50 [15] | GI50 [16] | GI50 [17] | GI50 [18] | GI50 [19]
1 | CN(C)CCCCN1CCc2c(n(C)c3ccccc23)C1=O | > 70 µM (inactive) | 82 µM (inactive) | 35.3 µM (inactive) | 67.9 µM (inactive) | 26 µM (inactive) | 39.4 | 56.9 µM (inactive) | > 78.9 µM (inactive) | 48.1 µM (inactive) | 23.4 µM (inactive) | 55.3 µM (inactive) | 20.3 µM (inactive) | > 61.5 µM (inactive) | 48.1 µM (inactive) | 21.3 µM (inactive) | 51.5 µM (inactive) | 25.9 µM (inactive) | – | –
2 | Cc1nn(C(=O)c2ccncc2)c2c1C(c1ccccc1O)SC(=N)N2 (stereo unspecified) | > 10 µM (inactive) | > 10 µM (inactive) | > 10 µM (inactive) | > 10 µM (inactive) | > 10 µM (inactive) | > 10 | – | > 10 µM (inactive) | > 10 µM (inactive) | > 10 µM (inactive) | > 10 µM (inactive) | > 10 µM (inactive) | > 10 µM (inactive) | > 10 µM (inactive) | > 10 µM (inactive) | > 10 µM (inactive) | > 10 µM (inactive) | > 10 µM (inactive) | > 10 µM (inactive)
3 | CCOP(=O)(OCC)OC1c2[nH]ccc2-c2cc(C(=O)OC)[nH]c2C1OC (stereo unspecified) | > 100 µM (inactive) | > 100 µM (inactive) | > 100 µM (inactive) | > 100 µM (inactive) | 45.8 µM (inactive) | 59.3 | 46.3 µM (inactive) | > 100 µM (inactive) | > 100 µM (inactive) | > 100 µM (inactive) | > 100 µM (inactive) | 82 µM (inactive) | – | > 100 µM (inactive) | 38.5 µM (inactive) | > 100 µM (inactive) | > 100 µM (inactive) | 73.6 µM (inactive) | > 100 µM (inactive)
4 | CCSC1=N/C(=C/c2ccccc2O)C(=O)N1 | 31.7 µM (inactive) | > 100 µM (inactive) | > 100 µM (inactive) | > 100 µM (inactive) | > 100 µM (inactive) | > 100 | 38.5 µM (inactive) | > 100 µM (inactive) | 83.2 µM (inactive) | 61 µM (inactive) | > 100 µM (inactive) | > 100 µM (inactive) | 31.9 µM (inactive) | > 100 µM (inactive) | > 100 µM (inactive) | > 100 µM (inactive) | > 100 µM (inactive) | – | 38.7 µM (inactive)
5 | Cc1cc(C)c2c(c1)CN1CN2Cc2cc(C)cc(C)c21 | 27.8 µM (inactive) | 20.8 µM (inactive) | 22.1 µM (inactive) | 24.6 µM (inactive) | 16 µM (inactive) | > 10 | 24.4 µM (inactive) | 14.8 µM (inactive) | 31.6 µM (inactive) | 27.7 µM (inactive) | 29 µM (inactive) | 16.5 µM (inactive) | 26 µM (inactive) | 22.4 µM (inactive) | – | 16.9 µM (inactive) | > 10 µM (inactive) | 19 µM (inactive) | 17.5 µM (inactive)
6 | c1csc(-c2sc(-c3ccsc3)cc2Cc2ccsc2)c1 | > 10 µM (inactive) | > 10 µM (inactive) | > 10 µM (inactive) | > 10 µM (inactive) | > 10 µM (inactive) | > 10 | – | – | > 10 µM (inactive) | > 10 µM (inactive) | – | > 10 µM (inactive) | – | > 10 µM (inactive) | > 10 µM (inactive) | > 10 µM (inactive) | – | > 10 µM (inactive) | –
7 | O=C(NN=C1CCN(Cc2ccccc2)CC1)C(O)(c1ccccc1)c1ccccc1 | > 100 µM (inactive) | > 100 µM (inactive) | > 100 µM (inactive) | > 100 µM (inactive) | > 100 µM (inactive) | > 100 | > 100 µM (inactive) | – | > 100 µM (inactive) | – | – | > 100 µM (inactive) | > 100 µM (inactive) | > 100 µM (inactive) | > 100 µM (inactive) | > 100 µM (inactive) | – | > 100 µM (inactive) | > 100 µM (inactive)
8 | CC1(C)Cc2c(oc3ncnc(N)c23)CS1 | > 100 µM (inactive) | > 100 µM (inactive) | > 100 µM (inactive) | > 100 µM (inactive) | > 100 µM (inactive) | > 100 | 49.2 µM (inactive) | > 100 µM (inactive) | > 100 µM (inactive) | > 100 µM (inactive) | > 100 µM (inactive) | – | 89.7 µM (inactive) | > 100 µM (inactive) | > 100 µM (inactive) | > 100 µM (inactive) | > 100 µM (inactive) | – | > 100 µM (inactive)
9 | O=C(O)c1ccc(Nc2nc3nn(Cc4ccccc4)cc3c(=O)s2)cc1 | > 100 µM (inactive) | > 100 µM (inactive) | > 100 µM (inactive) | > 100 µM (inactive) | – | > 100 | > 100 µM (inactive) | > 100 µM (inactive) | > 100 µM (inactive) | > 100 µM (inactive) | > 100 µM (inactive) | > 100 µM (inactive) | – | > 100 µM (inactive) | > 100 µM (inactive) | > 100 µM (inactive) | > 100 µM (inactive) | > 100 µM (inactive) | > 100 µM (inactive)
10 | Cc1ccc(C2OC(COCc3ccc(Cl)cc3)C(OCc3ccc(Cl)cc3)C2O)cc1 (stereo unspecified) | 2.63 µM (inactive) | 6.44 µM (inactive) | 22.8 µM (inactive) | – | 4.42 µM (inactive) | 7.85 | 6.76 µM (inactive) | 10.7 µM (inactive) | – | 4.42 µM (inactive) | – | 31.1 µM (inactive) | 1.36 µM (inactive) | 2.06 µM (inactive) | 12.1 µM (inactive) | 13 µM (inactive) | 11.1 µM (inactive) | 12.7 µM (inactive) | 10.5 µM (inactive)
11 | O=C(CCC(=O)Nc1cccc(Cl)c1)CC(=O)c1ccc(F)cc1 | > 100 µM (inactive) | > 100 µM (inactive) | > 100 µM (inactive) | – | > 100 µM (inactive) | > 100 | > 100 µM (inactive) | > 100 µM (inactive) | > 100 µM (inactive) | > 100 µM (inactive) | > 100 µM (inactive) | > 100 µM (inactive) | > 100 µM (inactive) | > 100 µM (inactive) | – | – | > 100 µM (inactive) | > 100 µM (inactive) | –
12 | CCOC(C)OCC#CCCBr (stereo unspecified) | > 100 µM (inactive) | > 100 µM (inactive) | > 100 µM (inactive) | 37.1 µM (inactive) | > 100 µM (inactive) | > 100 | > 100 µM (inactive) | > 100 µM (inactive) | > 100 µM (inactive) | 59.7 µM (inactive) | – | – | – | > 100 µM (inactive) | > 100 µM (inactive) | > 100 µM (inactive) | > 100 µM (inactive) | > 100 µM (inactive) | > 100 µM (inactive)
13 | CC(=O)O[C@]12CCCCCC1C1(O)C(O)CCCCC12 (stereo partly specified) | > 100 µM (inactive) | > 100 µM (inactive) | > 100 µM (inactive) | > 100 µM (inactive) | > 100 µM (inactive) | > 100 | > 100 µM (inactive) | – | > 100 µM (inactive) | > 100 µM (inactive) | > 100 µM (inactive) | > 100 µM (inactive) | > 100 µM (inactive) | > 100 µM (inactive) | > 100 µM (inactive) | > 100 µM (inactive) | > 100 µM (inactive) | > 100 µM (inactive) | > 100 µM (inactive)
